# In patent publication US20070160725A1, “Use of extracts and compounds of allium-genus plants as preservatives in the food and agri-food industries” (MOUSALA, S., L., priority 2004, published 2007):
# How the values were obtained:
# [1] = tested on: Coliforms; test: microbiological quality of treated hamburgers and fresh sausage: coliform count (MPN)
# Description: (§1) The tests were conducted on meat products such as hamburgers and fresh sausage at different doses, with and without the usual preservatives (sulfites).
# (§2) Each sample is prepared in quintuplicate and microbiological quality control over time is conducted, a triplicate of each sample being performed.
# The method used to detect lactose-positive enterobacteria (coliforms) is based on its capacity to ferment lactose with the production of acid and gas in the presence of bile salts.
# To that end a count was performed in liquid medium to determine a MPN on Brilliant Green Bile Lactose Broth (Merck Brila Broth).
# Said Brilliant Broth is prepared in a test tube rack with 3 series of three tubes for each one of the samples to be analyzed. Each tube contains 10 ml of Brila Broth and 1 Durham tube.
# 1 mL of the dilution of the sample at 1:10 or (−1) is poured into each one of the tubes of the first series.
# 1 mL of the dilution of the sample at 1:100 or (−2) is poured into each one of the tubes of the second series.
# 1 mL of the dilution of the sample at 1:1000 or (−3) is poured into each one of the tubes of the third series.
# The three series are incubated at 31±1° C., taking a reading at 24 and 48 hours.
# The reaction is positive when gas discharge occurs inside the Durham tube, at least in 1/10 of its volume.
# The Most Probable Number (MPN) table is used with the number of positive tubes in each series, and the data is extrapolated.
# The result is finally expressed as the coliform count per gram of sample.
# (§3) Two different raw meat products (sausages and hamburgers) treated with different allicin doses are prepared. • The used testing doses were: 25, 50 and 100 ppm.
# (§4) Five samples of each product (hamburger and sausage) are prepared, each one of them being analyzed in triplicate.
# (§5) The microbiological parameters analyzed were as follows: • Total mesophilic aerobes • Coliforms • Escherichia coli • Salmonella (presence/absence in 25 g) • Said parameters were analyzed at different times: • 0 days • 4 days • 7 days • The sample references resulted as follows: […]
# [2] = tested on: Total mesophilic aerobes; test: microbiological quality of treated hamburgers and fresh sausage: total mesophilic aerobe count
# Description: as §1, §2
# The method used to determine the number of germs per gram was the dish count number, starting from serial decimal dilutions of the sample and using the surface seeding technique.
# The culture medium used was nutrient agar (Merck PCA) prepared on Petri dishes on which, from the serial decimal dilutions of the sample (from −1 . . . to −6 in Merck triptone soy broth or TSB), 0.1 mL of each one of the dilutions was transferred.
# Dish incubation temperature was 31±1° C.
# The final result is expressed as the total microorganism count per gram of sample (said count is performed in the dilutions in which between 30-300 colonies/dish are detected).
# as §3, §4, §5
# [3] = tested on: Escherichia coli; test: microbiological quality of treated hamburgers and fresh sausage: Escherichia coli count
# Description: as §1, §2
# The positive Brila Broth tubes obtained in the coliform study are used according to the following protocol:
# All the tubes having gas production are subcultured again with an inoculation loop in tubes containing 10 mL of Brila Broth (with a Durham tube), being incubated at 44.5° C. for 24-48 hours.
# Once the incubation has elapsed the existence of Escherichia coli is assumed in any tube with growth and with gas formation under the previously discussed conditions.
# Eosine Methylene Blue (Merck EMB) was used as a selective confirmation medium, isolating on dishes containing EMB from all the positive tubes. The occurrence of colonies measuring 2-3 mm in diameter (planar or slightly concave), with dark almost black centers occupying ¾ of the colony which, with reflected light, sometimes show a greenish metallic glow, which are most likely Escherichia coli, the confirmation of which is done by means of the indole biochemistry test.
# When positive growth (gas) in Brila Broth at 44.5° C., indole production and characteristic growth on EMB agar coincide, the reading is done in the MPN table and the data is extrapolated.
# The result is expressed as the number of
# Escherichia coli per gram of sample.
# as §3, §4, §5
# [4] = tested on: Aspergillus terreus, isolated from the environment of the cheese maturation chamber; test: agar diffusion, inhibition halo; format: cell-based
# Summary of the method: (§6)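 Agar diffusion on 2% Sabouraud-glucose medium used 6 mm cellulose discs carrying the test doses. Reported halos include the disc diameter.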
# [5] = tested on: Candida krusei, isolated from cheese; test: agar diffusion, inhibition halo; format: cell-based
# Summary of the method: as §6
# [6] = tested on: Aspergillus niger, CECT 2700; test: agar diffusion, inhibition halo; format: cell-based
# Summary of the method: as §6
# [7] = tested on: Saccharomyces cerevisiae, CECT 1324; test: agar diffusion, inhibition halo; format: cell-based
# Summary of the method: as §6
# [8] = tested on: Penicillium sp, isolated from cheese; test: agar diffusion, inhibition halo; format: cell-based
# Summary of the method: as §6
# [9] = tested on: Candida parapsilosis, isolated from cheese; test: agar diffusion, inhibition halo; format: cell-based
# Summary of the method: as §6
# [10] = tested on: Candida magnoliae, isolated from cheese; test: agar diffusion, inhibition halo; format: cell-based
# Summary of the method: as §6
# [11] = hamburger, 25 ppm of allicin (H-1), t = 0 days
# [12] = hamburger, 25 ppm of allicin (H-1), t = 4 days
# [13] = hamburger, 50 ppm of allicin (H-2), t = 0 days
# [14] = hamburger, 50 ppm of allicin (H-2), t = 4 days
# [15] = hamburger, 100 ppm of allicin (H-3), t = 0 days
# [16] = hamburger, 100 ppm of allicin (H-3), t = 4 days
# [17] = sausage, 25 ppm of allicin (S-1), t = 0 days
# [18] = sausage, 25 ppm of allicin (S-1), t = 4 days
# [19] = sausage, 50 ppm of allicin (S-2), t = 0 days
# [20] = sausage, 50 ppm of allicin (S-2), t = 4 days
# [21] = sausage, 100 ppm of allicin (S-3), t = 0 days
# [22] = sausage, 100 ppm of allicin (S-3), t = 4 days
smiles,measurement,setting,value
"C=CCS[S+]([O-])CC=C (stereo not drawn) [Allicin, allyl allylthiosulfinate]",Coliforms,[1]; [11],150 cfu/g
same,Coliforms,[1]; [12],>2400 cfu/g
same,Coliforms,[1]; [13],150 cfu/g
same,Coliforms,[1]; [14],1100 cfu/g
same,Coliforms,[1]; [15],150 cfu/g
same,Coliforms,[1]; [16],150 cfu/g
same,Coliforms,[1]; [17],3 cfu/g
same,Coliforms,[1]; [18],21 cfu/g
same,Coliforms,[1]; [19],<3 cfu/g
same,Coliforms,[1]; [20],7 cfu/g
same,Coliforms,[1]; [21],<3 cfu/g
same,Coliforms,[1]; [22],<3 cfu/g
same,reduction of total mesophilic aerobes with respect to untreated controls,"[2]; allicin 100 ppm, all sausage samples and hamburgers, maintained from 0 to 4 days",reduction of one logarithmic unit
same,Total aerobes,[2]; [11],2.17 × 10^6 cfu/g
same,Total aerobes,[2]; [12],1.56 × 10^8 cfu/g
same,Total aerobes,[2]; [13],9.01 × 10^5 cfu/g
same,Total aerobes,[2]; [14],6.23 × 10^7 cfu/g
same,Total aerobes,[2]; [15],4.08 × 10^5 cfu/g
same,Total aerobes,[2]; [16],3.17 × 10^7 cfu/g
same,Total aerobes,[2]; [17],2.24 × 10^5 cfu/g
same,Total aerobes,[2]; [18],3.08 × 10^6 cfu/g
same,Total aerobes,[2]; [19],8.99 × 10^4 cfu/g
same,Total aerobes,[2]; [20],2.72 × 10^6 cfu/g
same,Total aerobes,[2]; [21],6.06 × 10^4 cfu/g
same,Total aerobes,[2]; [22],3.10 × 10^5 cfu/g
same,Escherichia coli,[3]; [11],23 cfu/g
same,Escherichia coli,[3]; [12],150 cfu/g
same,Escherichia coli,[3]; [13],23 cfu/g
same,Escherichia coli,[3]; [14],150 cfu/g
same,Escherichia coli,[3]; [15],23 cfu/g
same,Escherichia coli,[3]; [16],43 cfu/g
same,Escherichia coli,[3]; [17],<3 cfu/g
same,Escherichia coli,[3]; [18],4 cfu/g
same,Escherichia coli,[3]; [19],<3 cfu/g
same,Escherichia coli,[3]; [20],4 cfu/g
same,Escherichia coli,[3]; [21],<3 cfu/g
same,Escherichia coli,[3]; [22],<3 cfu/g
same,inhibition halo diameter,[4]; 25 ppm,12 mm
same,inhibition halo diameter,[4]; 50 ppm,22 mm
same,inhibition halo diameter,[4]; 100 ppm,25 mm
same,inhibition halo diameter,[5]; 25 ppm,14 mm
same,inhibition halo diameter,[5]; 50 ppm,18 mm
same,inhibition halo diameter,[5]; 100 ppm,29 mm
same,inhibition halo diameter,[6]; 25 ppm,10 mm
same,inhibition halo diameter,[6]; 50 ppm,13 mm
same,inhibition halo diameter,[6]; 100 ppm,19 mm
same,inhibition halo diameter,[7]; 25 ppm,28 mm
same,inhibition halo diameter,[7]; 50 ppm,32 mm
same,inhibition halo diameter,[7]; 100 ppm,44 mm
same,inhibition halo diameter,[8]; 25 ppm,22 mm
same,inhibition halo diameter,[8]; 50 ppm,26 mm
same,inhibition halo diameter,[8]; 100 ppm,34 mm
same,inhibition halo diameter,[9]; 50 ppm,14 mm
same,inhibition halo diameter,[9]; 100 ppm,17 mm
same,inhibition halo diameter,[10]; 25 ppm,22 mm
same,inhibition halo diameter,[10]; 50 ppm,30 mm
same,inhibition halo diameter,[10]; 100 ppm,38 mm
